Measured values from patent publication US20220305003A1, “METHODS OF TREATING CANCER WITH AN INHIBITOR OF ZNF827” (CHILDREN'S MEDICAL RESEARCH INSTITUTE, priority 2019, published 2022).

Assays:
panel of 660 cell lines = assay: Drug sensitivity (Sanger GDSC IC50) versus ZNF827 gene expression; type: cell-based; conditions: natural log of the IC50 from Sanger GDSC v17.3; low log2(TPM) <1 vs normal; Nemenyi test, adjusted p-value<0.05
Procedure: ZNF827 gene expression for the 660 cell lines was plotted on a histogram and grouped by gene expression level, represented as log2(TPM), into “low” (<1), “normal” (>1, <5) and “high” (>5). […] The Nemenyi statistical test was used to test for significant differences between “low” and “normal” ZNF827 expression groups for drug sensitivity for each compound. P-values were then corrected for multiple testing using FDR correction. […] All statistical analysis was performed in R (version 3.6.0), using the “stats” (version 3.6.0) and “PMCMR” (version 4.3) libraries.

ATR-CHK1 pathway = assay: Western blot of ATR downstream effectors (p-CHK1 S345, p-RPA2 S33, pCHK2); type: cell-based; conditions: U-2 OS; agent alone (topotecan 2 μg/mL 24 hours, aphidicolin 1 μM 20 hours, or siRNA knockdown in unchallenged cells)
Procedure: Protein was extracted from 10^6 cells per sample by vigorous pipetting and incubation at room temperature for 30 minutes in 100 μL of EDTA-free 4× LDS buffer (106 mM Tris-Cl, 141 mM Tris-Base, 40% Glycerol, 2% LDS, 0.075% SERVA Blue G50) supplemented with 2.5% Benzonase® nuclease 25 U/μL (Novagen, Merck Millipore) and 2% beta-mercaptoethanol (Sigma). Following protein extraction, all samples were denatured at 90° C. for 15 minutes before resolving on NuPAGE® Novex® 4-12% Bis-Tris Mini Gels (Invitrogen) with 1×10^5 cells (10 μL) loaded per lane in NuPAGE® MES SDS running buffer (Invitrogen) at 200 V for 50 minutes. Gels were transferred onto a PVDF membrane (Immobilon-P, Millipore) in transfer buffer (190 mM glycine, 25 mM Tris and 10% methanol) at 100 V for 60 minutes. Membranes were stained with Ponceau-S for 30 minutes, de-stained then blocked for 1 hour at room temperature in 5% skim milk dissolved in PBS with 0.1% Tween-20 (PBST) or TBS with 0.1% Tween-20 (TBST) for phosphorylated proteins. Membranes were cut into appropriate segments based on the size markers, with each segment incubated with antibodies for proteins of interest diluted in 0.5% skim milk in PBST/TBST or 5% BSA overnight at 4° C. (Refer to Table 4 for the list of antibodies). Blots were then washed for 3×5 minutes in PBST/TBST followed by incubation for 1 hour at room temperature with appropriate secondary antibodies (See Table 5) diluted 1:5000 in 0.5% skim milk or 5% BSA in PBST/TBST. Blots were washed for 3×5 minutes in PBST/TBST before incubation with SuperSignal West Pico Chemiluminescent Substrate (ThermoFisher Scientific) for 5 minutes at room temperature. Blots were then exposed to a Luminescent Image Analyser (LAS-4000, Fujifilm).
To investigate the precise function of ZNF827 in the ATR pathway, the effect of ZNF827 depletion on the downstream effectors of ATR was examined. To activate ATR, U-2 OS cells were treated with DNA damage and replication stress inducing agents topotecan 2 μg/mL for 24 hours or aphidicolin 1 μM for 20 hours. […] Phosphorylation of CHK2 was not affected by ZNF827 depletion, further supporting that the role of ZNF827 in DNA damage and repair is independent of ATM (FIG. 6d).

Molecule	drug sensitivity in cell lines with low ZNF827 compared to cell lines with normal ZNF827 expression (panel of 660 cell lines)	phosphorylation of CHK1 S345 (ATR-CHK1 pathway)
O=c1[nH]c2ccccc2n1C1CCN(Cc2ccc(-c3nc4cc5[nH]cnc5cc4nc3-c3ccccc3)cc2)CC1 [AKT inhibitor VIII]	Increased sensitivity	
Cc1ccc(NC(=O)c2cccc(C(C)(C)C#N)c2)cc1Nc1ccc2ncn(C)c(=O)c2c1 [AZ628]	Increased sensitivity	
C=C(c1ccc(C(=O)O)cc1)c1cc2c(cc1C)C(C)(C)CCC2(C)C [Bexarotene]	Increased sensitivity	
O=C(NOCC1CC1)c1ccc(F)c(F)c1Nc1ccc(I)cc1Cl [CI-1040]	Increased sensitivity	
Cc1ccc(-c2c(C(=O)CF)n(CCCO)c3ncnc(N)c23)cc1 [FMK]	Increased sensitivity	
Nc1[nH]nc2nnc(-c3c(-c4ccccc4)nn4ccccc34)cc12 [FR-180204]	Increased sensitivity	
Cn1cc(/C=C2\C(=O)Nc3cccnc32)c2ccccc21 [GW441756]	Increased sensitivity	
CCNC(=O)C[C@@H]1N=C(c2ccc(Cl)cc2)c2cc(OC)ccc2-n2c(C)nnc21 [I-BET-762]	Increased sensitivity	
Cc1ccc(NC(=O)c2ccc(CN3CCN(C)CC3)cc2)cc1Nc1nccc(-c2cccnc2)n1 [Imatinib]	Increased sensitivity	
O=C(N[C@@H](COc1ccc2[nH]c(=O)[nH]c2c1)c1ccccc1)c1cccn(Cc2ccc(F)c(F)c2)c1=O [KIN001-244]	Increased sensitivity	
COc1cc(C(=O)NC2CCN(C)CC2)ccc1Nc1ncc2c(n1)N(C1CCCC1)C(C)CC(=O)N2C (centres unmarked) [NPK76-II-72-1]	Increased sensitivity	
Cc1ccc(C(=O)Nc2cccc(C(F)(F)F)c2)cc1Nc1nc(-c2cccnc2)nc2c1cnn2C [NVP-BHG712]	Increased sensitivity	
Cc1cn(-c2cc(NC(=O)c3ccc(C)c(Nc4nccc(-c5cccnc5)n4)c3)cc(C(F)(F)F)c2)cn1 [Nilotinib]	Increased sensitivity	
O=C(Nc1ccc(OC(F)(F)F)cc1)c1sccc1NCc1ccnc2ccccc12 [OSI-930]	Increased sensitivity	
O=C(NOC[C@H](O)CO)c1ccc(F)c(F)c1Nc1ccc(I)cc1F [PD0325901]	Increased sensitivity	
[H]/N=C(/N)N/C(=N/[H])NCCc1ccccc1 [Phenformin]	Increased sensitivity	

Molecule	drug sensitivity in cell lines with low ZNF827 compared to cell lines with normal ZNF827 expression (panel of 660 cell lines)	phosphorylation of CHK1 S345 (ATR-CHK1 pathway)
CC1(C)CC(=O)c2c(C(F)(F)F)nn(-c3ccc(C(N)=O)c(N[C@H]4CC[C@H](O)CC4)c3)c2C1 [SNX-2112]	Increased sensitivity	
CCN(CC)CCNC(=O)c1c(C)[nH]c(/C=C2\C(=O)Nc3ccc(F)cc32)c1C.O=C(O)C[C@H](O)C(=O)O [Sunitib]	Increased sensitivity	
O=S(=O)(c1ccccc1)N(CC(F)(F)F)c1ccc(C(O)(C(F)(F)F)C(F)(F)F)cc1 [T0901317]	Increased sensitivity	
CCc1nc(-c2cccc(C)c2)c(-c2ccnc(NC(=O)c3ccccc3)c2)s1 [TAK-715]	Increased sensitivity	
CN(C)C/C=C/C(=O)Nc1ccc(C(=O)Nc2cccc(Nc3ncc(Cl)c(-c4c[nH]c5ccccc45)n3)c2)cc1 [THZ-2-102-1]	Increased sensitivity	
CC/C(=C(\c1ccccc1)c1ccc(OCCN(C)C)cc1)c1ccccc1 [Tamoxifen]	Increased sensitivity	
CC1=C(/C=C/C(C)=C/C=C/C(C)=C/C(=O)O)C(C)(C)CCC1 [Tretinoin]	Increased sensitivity	
CCCC(=O)OCc1ccc(OC(=O)/C=C(C)/C=C/C=C(C)/C=C/C2=C(C)CCCC2(C)C)cc1 [VNLG-124]	Increased sensitivity	
NC(=O)c1ccc(N(C(N)=O)c2c(F)cccc2F)nc1-c1ccc(F)cc1F [VX-702]	Increased sensitivity	
O=C(CCCCCCC(=O)Nc1ccccc1)NO [Vorinostat]	Increased sensitivity	
C[C@@]1(CO)[C@H](O)CC[C@@]2(C)[C@H]1CC[C@H]1C[C@@H]3C[C@@]12CC[C@]3(O)CO [aphidicolin]		became phosphorylated at S345
KIN001-236	Increased sensitivity	
KIN001-260	Increased sensitivity	
THZ-2-49	Increased sensitivity	
TL-1-85	Increased sensitivity	
TL-2-105	Increased sensitivity	
